In patent US7495126B2, “Process of preparation of substituted tetrafluorobenzylaniline compound and its pharmaceutically approved salts” (priority 2005, dated 2009):

Columns and labels:
[1] = Stability test of injectable preparation (salt in WFI, HPLC); conditions: in WFI 2 mg/ml
physchem = type: physicochemical; conditions: 25 °C, water, thermodynamic from solid
[2] = system: SD (Sprague Dawley) male rats; assay: Acute toxicity test in rats, single intravenous dose; type: in vivo; conditions: for Number of dead animals/Number of drug-treated animals: 14 days after administration
[3] = as above; type: in vivo; conditions: male, Sprague-Dawley, rat, in vivo, iv; rats, single i.v. dose, 14 days; read-out: Estimated LD50
[4] = Stability test of oral preparation (powder in vial, HPLC); conditions: for Residual amount: powder (solid)
Description: It was then stored at different temperatures (25° C., 40° C., 60° C.) for 6 months and the amount of active ingredients in powder were measured by HPLC.

For `O=C([O-])c1cc(NCc2c(F)c(F)c(C(F)(F)F)c(F)c2F)ccc1O.[Na+]` [sodium salt, sodium 2-hydroxy-5-(2,3,5,6-tetrafluoro-4-trifluoromethyl-benzylamino)benzoate], the Residual amount ([1]; 25° C., day 0) was 104.15 ± 0.54%, the Residual amount ([1]; 25° C., day 3) was 101.89 ± 1.16% and the Residual amount ([1]; 25° C., day 7) was 100.59 ± 0.19%. The Residual amount ([1]; 25° C., day 14) was 101.63 ± 0.19%, the Residual amount ([1]; 25° C., day 21) was 99.25 ± 1.41% and the Residual amount ([1]; 25° C., day 30) was 98.50 ± 1.64%. For the same molecule, the Residual amount ([1]; 25° C., day 60) was 98.52 ± 0.02%, the Residual amount ([1]; 25° C., day 90) was 94.04 ± 4.28% and the Residual amount ([1]; 25° C., day 120) was 92.79 ± 1.01%. The Residual amount ([1]; 25° C., day 150) was 90.18 ± 3.14%, the Residual amount ([1]; 25° C., day 180) was 85.56 ± 4.58% and the Residual amount ([1]; 40° C., day 0) was 104.15 ± 0.54%. The Residual amount ([1]; 40° C., day 3) was 102.77 ± 0.08%, the Residual amount ([1]; 40° C., day 7) was 98.54 ± 0.71% and the Residual amount ([1]; 40° C., day 14) was 99.56 ± 0.72%. It also gave a Residual amount ([1]; 40° C., day 21) of 95.98 ± 1.50%, a Residual amount ([1]; 40° C., day 30) of 95.17 ± 0.07% and a Residual amount ([1]; 40° C., day 60) of 91.51 ± 1.17%. For the same molecule, the Residual amount ([1]; 40° C., day 90) was 86.36 ± 0.90%, the Residual amount ([1]; 40° C., day 120) was 79.02 ± 1.05% and the Residual amount ([1]; 40° C., day 150) was 77.42 ± 0.71%. The Residual amount ([1]; 40° C., day 180) was 72.32 ± 0.38%, the Residual amount ([1]; 60° C., day 0) was 104.15 ± 0.54% and the Residual amount ([1]; 60° C., day 3) was 99.39 ± 0.43%. The Residual amount ([1]; 60° C., day 7) was 92.01 ± 1.27%, the Residual amount ([1]; 60° C., day 14) was 92.96 ± 1.28% and the Residual amount ([1]; 60° C., day 21) was 84.54 ± 1.34%. For the same molecule, the Residual amount ([1]; 60° C., day 30) was 82.88 ± 4.35%, the Residual amount ([1]; 60° C., day 60) was 70.25 ± 4.27% and the Residual amount ([1]; 60° C., day 90) was 56.00 ± 11.70%. For the same molecule, the Residual amount ([1]; 60° C., day 120) was 53.43 ± 6.30%, the Residual amount ([1]; 60° C., day 150) was 40.37 ± 14.41% and the Residual amount ([1]; 60° C., day 180) was 37.10 ± 12.35%. The solubility at 48 h (physchem) was 25 to 80 mg/mL, the “Number of dead animals/Number of drug-treated animals” value ([2]; 50 mg/kg single i.v. dose) was 0/5 and the “Number of dead animals/Number of drug-treated animals” value ([2]; 100 mg/kg single i.v. dose) was 0/5. For the same molecule, the “Number of dead animals/Number of drug-treated animals” value ([2]; 150 mg/kg single i.v. dose) was 0/7, the “Number of dead animals/Number of drug-treated animals” value ([2]; 175 mg/kg single i.v. dose) was 1/7 and the “Number of dead animals/Number of drug-treated animals” value ([2]; 200 mg/kg single i.v. dose) was 2/7. For the same molecule, the “Number of dead animals/Number of drug-treated animals” value ([2]; 225 mg/kg single i.v. dose) was 2/7, the “Number of dead animals/Number of drug-treated animals” value ([2]; 250 mg/kg single i.v. dose) was 5/5 and the “toxicity compared with free base” value ([2]; rats, i.v., Tables 7-9) was “less toxicity than free base”. The LD50 at 14 day [3] was 225 to 250 mg/kg, the “stability in powder form” value ([4]; high temperatures) was “relatively stable in high temperatures” and the Residual amount ([4]; 25° C., day 0) was 101.33 ± 1.02%. It also gave a Residual amount ([4]; 25° C., day 7) of 100.75 ± 6.24%, a Residual amount ([4]; 25° C., day 14) of 100.45 ± 1.24% and a Residual amount ([4]; 25° C., day 21) of 99.76 ± 0.70%. The Residual amount ([4]; 25° C., day 30) was 99.61 ± 3.21%, the Residual amount ([4]; 25° C., day 60) was 99.60 ± 0.16% and the Residual amount ([4]; 25° C., day 120) was 99.51 ± 1.70%. For the same molecule, the Residual amount ([4]; 25° C., day 180) was 99.19 ± 2.28%, the Residual amount ([4]; 40° C., day 0) was 101.33 ± 1.02% and the Residual amount ([4]; 40° C., day 7) was 100.81 ± 3.35%. For the same molecule, the Residual amount ([4]; 40° C., day 14) was 100.69 ± 0.29%, the Residual amount ([4]; 40° C., day 21) was 100.57 ± 0.48% and the Residual amount ([4]; 40° C., day 30) was 100.46 ± 0.27%. The Residual amount ([4]; 40° C., day 60) was 100.07 ± 0.16%, the Residual amount ([4]; 40° C., day 120) was 99.94 ± 1.15% and the Residual amount ([4]; 40° C., day 180) was 99.89 ± 1.11%. For the same molecule, the Residual amount ([4]; 60° C., day 0) was 101.33 ± 1.02%, the Residual amount ([4]; 60° C., day 7) was 101.27 ± 4.45% and the Residual amount ([4]; 60° C., day 14) was 101.14 ± 0.50%. It also gave a Residual amount ([4]; 60° C., day 21) of 100.15 ± 1.14%, a Residual amount ([4]; 60° C., day 30) of 100.10 ± 0.75% and a Residual amount ([4]; 60° C., day 60) of 99.91 ± 1.18%. For the same molecule, the Residual amount ([4]; 60° C., day 120) was 99.81 ± 2.28% and the Residual amount ([4]; 60° C., day 180) was 99.75 ± 0.20%.
